According to the supplement of paper PMC10883282:
± gives the standard deviation of the averaged measurements.

Experiments:
Test in all cases: relative viability vs DMSO control (72 h) (fraction); higher = more viable cells
G401 = test system: G401
In short: (§1)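 Relative viability is percent growth read by ATPLite and averaged over up to triplicate wells. Sarcoma cells were seeded in 384-well plates to reach 80–90% confluence and given 2.5 µl of serially diluted compound after 24 h, from source plates of 10 mM to 0.0002 mM. Incubation lasted 72 h at 37 °C, 5% CO2, with 0.1% DMSO vehicle and a 5 µM positive control, and the data were rescaled so 1 equals full and 0 equals none.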

HT1080 = test system: HT1080
In short: as §1

KHOS-240S = test system: KHOS-240S
In short: as §1

MES-SA = test system: MES-SA
In short: as §1

RD-ES = test system: RD-ES
In short: as §1

RD = test system: RD
In short: as §1

SK-ES-1 = test system: SK-ES-1
In short: as §1

SK-LMS-1 = test system: SK-LMS-1
In short: as §1

SW1353 = test system: SW1353
In short: as §1

SW982 = test system: SW982
In short: as §1

SYO-1 = test system: SYO-1
In short: as §1

VA-ES-BJ = test system: VA-ES-BJ
In short: as §1

Cc1[nH]c(/C=C2\C(=O)Nc3ccccc32)c(C)c1CCC(=O)O [Orantinib]
Details | relative viability
G401, 0.00017 µM | 1.07 ± 0.049
G401, 0.00051 µM | 1.11 ± 0.044
G401, 0.00152 µM | 1.07 ± 0.023
G401, 0.00457 µM | 1.08 ± 0.035
G401, 0.01372 µM | 1.07 ± 0.032
G401, 0.04115 µM | 1.04 ± 0.016
G401, 0.1235 µM | 1.057 ± 0.0082
G401, 0.3704 µM | 1.06 ± 0.036
G401, 1.111 µM | 1.05 ± 0.026
G401, 3.333 µM | 1.058 ± 0.0054
G401, 10 µM | 0.966 ± 0.02
HT1080, 0.00017 µM | 1.09 ± 0.059
HT1080, 0.00051 µM | 1.1 ± 0.033
HT1080, 0.00152 µM | 1.13 ± 0.044
HT1080, 0.00457 µM | 1.11 ± 0.024
HT1080, 0.01372 µM | 1.08 ± 0.029
HT1080, 0.04115 µM | 1.07 ± 0.053
HT1080, 0.1235 µM | 1.11 ± 0.033
HT1080, 0.3704 µM | 1.09 ± 0.043
HT1080, 1.111 µM | 1.05 ± 0.022
HT1080, 3.333 µM | 0.991 ± 0.031
HT1080, 10 µM | 0.947 ± 0.065
KHOS-240S, 0.00017 µM | 1.04 ± 0.025
KHOS-240S, 0.00051 µM | 1.07 ± 0.034
KHOS-240S, 0.00152 µM | 1.087 ± 0.0054
KHOS-240S, 0.00457 µM | 1.06 ± 0.055
KHOS-240S, 0.01372 µM | 1.05 ± 0.029
KHOS-240S, 0.04115 µM | 1.065 ± 0.01
KHOS-240S, 0.1235 µM | 1.08 ± 0.045
KHOS-240S, 0.3704 µM | 1.09 ± 0.024
KHOS-240S, 1.111 µM | 1.03 ± 0.021
KHOS-240S, 3.333 µM | 1.06 ± 0.028
KHOS-240S, 10 µM | 0.963 ± 0.012
MES-SA, 0.00017 µM | 1 ± 0.035
MES-SA, 0.00051 µM | 0.989 ± 0.033
MES-SA, 0.00152 µM | 0.975 ± 0.013
MES-SA, 0.00457 µM | 0.968 ± 0.021
MES-SA, 0.01372 µM | 0.951 ± 0.042
MES-SA, 0.04115 µM | 0.948 ± 0.019
MES-SA, 0.1235 µM | 0.948 ± 0.032
MES-SA, 0.3704 µM | 0.953 ± 0.019
MES-SA, 1.111 µM | 0.941 ± 0.017
MES-SA, 3.333 µM | 0.941 ± 0.023
MES-SA, 10 µM | 0.93 ± 0.016
RD, 0.00017 µM | 1.05 ± 0.03
RD, 0.00051 µM | 1.08 ± 0.035
RD, 0.00152 µM | 1.1 ± 0.013
RD, 0.00457 µM | 1.12 ± 0.015
RD, 0.01372 µM | 1.11 ± 0.016
RD, 0.04115 µM | 1.09 ± 0.022
RD, 0.1235 µM | 1.12 ± 0.039
RD, 0.3704 µM | 1.11 ± 0.014
RD, 1.111 µM | 1.11 ± 0.03
RD, 3.333 µM | 1.07 ± 0.045
RD, 10 µM | 1.06 ± 0.033
RD-ES, 0.00017 µM | 1.02 ± 0.017
RD-ES, 0.00051 µM | 0.9951 ± 0.0033
RD-ES, 0.00152 µM | 1.01 ± 0.015
RD-ES, 0.00457 µM | 1.03 ± 0.031
RD-ES, 0.01372 µM | 1.03 ± 0.026
RD-ES, 0.04115 µM | 1.02 ± 0.034
RD-ES, 0.1235 µM | 1.01 ± 0.044
RD-ES, 0.3704 µM | 1 ± 0.025
RD-ES, 1.111 µM | 0.977 ± 0.032
RD-ES, 3.333 µM | 0.983 ± 0.019
RD-ES, 10 µM | 0.932 ± 0.031
SK-ES-1, 0.00017 µM | 1.05 ± 0.031
SK-ES-1, 0.00051 µM | 1.06 ± 0.03
SK-ES-1, 0.00152 µM | 1.06 ± 0.042
SK-ES-1, 0.00457 µM | 1.04 ± 0.044
SK-ES-1, 0.01372 µM | 1.04 ± 0.053
SK-ES-1, 0.04115 µM | 1.06 ± 0.089
SK-ES-1, 0.1235 µM | 1.02 ± 0.039
SK-ES-1, 0.3704 µM | 1.06 ± 0.065
SK-ES-1, 1.111 µM | 0.999 ± 0.067
SK-ES-1, 3.333 µM | 0.982 ± 0.058
SK-ES-1, 10 µM | 0.998 ± 0.025
SK-LMS-1, 0.00017 µM | 1.06 ± 0.015
SK-LMS-1, 0.00051 µM | 1.072 ± 0.0029
SK-LMS-1, 0.00152 µM | 1.06 ± 0.034
SK-LMS-1, 0.00457 µM | 1.04 ± 0.036
SK-LMS-1, 0.01372 µM | 1.05 ± 0.027
SK-LMS-1, 0.04115 µM | 1.07 ± 0.055
SK-LMS-1, 0.1235 µM | 1.04 ± 0.033
SK-LMS-1, 0.3704 µM | 1.032 ± 0.0044
SK-LMS-1, 1.111 µM | 0.994 ± 0.032
SK-LMS-1, 3.333 µM | 0.971 ± 0.043
SK-LMS-1, 10 µM | 0.8874 ± 0.0061
SW982, 0.00017 µM | 1.06 ± 0.023
SW982, 0.00051 µM | 1.11 ± 0.038
SW982, 0.00152 µM | 1.1 ± 0.016
SW982, 0.00457 µM | 1.1 ± 0.045
SW982, 0.01372 µM | 1.09 ± 0.046
SW982, 0.04115 µM | 1.1 ± 0.028
SW982, 0.1235 µM | 1.08 ± 0.031
SW982, 0.3704 µM | 1.044 ± 0.0096
SW982, 1.111 µM | 1.01 ± 0.043
SW982, 3.333 µM | 0.935 ± 0.055
SW982, 10 µM | 0.931 ± 0.025
SW1353, 0.00017 µM | 1.08 ± 0.017
SW1353, 0.00051 µM | 1.06 ± 0.038
SW1353, 0.00152 µM | 1.087 ± 0.006
SW1353, 0.00457 µM | 1.08 ± 0.019
SW1353, 0.01372 µM | 1.05 ± 0.012
SW1353, 0.04115 µM | 1.07 ± 0.035
SW1353, 0.1235 µM | 1.04 ± 0.019
SW1353, 0.3704 µM | 1.026 ± 0.0026
SW1353, 1.111 µM | 1 ± 0.014
SW1353, 3.333 µM | 0.963 ± 0.054
SW1353, 10 µM | 0.951 ± 0.061
SYO-1, 0.00017 µM | 1.012 ± 0.0092
SYO-1, 0.00051 µM | 1.01 ± 0.044
SYO-1, 0.00152 µM | 1.02 ± 0.048
SYO-1, 0.00457 µM | 1.02 ± 0.035
SYO-1, 0.01372 µM | 1.01 ± 0.023
SYO-1, 0.04115 µM | 1.03 ± 0.038
SYO-1, 0.1235 µM | 0.997 ± 0.047
SYO-1, 0.3704 µM | 0.979 ± 0.063
SYO-1, 1.111 µM | 0.973 ± 0.043
SYO-1, 3.333 µM | 0.945 ± 0.071
SYO-1, 10 µM | 0.799 ± 0.038
VA-ES-BJ, 0.00017 µM | 1.11 ± 0.018
VA-ES-BJ, 0.00051 µM | 1.1 ± 0.015
VA-ES-BJ, 0.00152 µM | 1.116 ± 0.011
VA-ES-BJ, 0.00457 µM | 1.096 ± 0.0071
VA-ES-BJ, 0.01372 µM | 1.06 ± 0.045
VA-ES-BJ, 0.04115 µM | 1.053 ± 0.005
VA-ES-BJ, 0.1235 µM | 1.1 ± 0.036
VA-ES-BJ, 0.3704 µM | 1.07 ± 0.04
VA-ES-BJ, 1.111 µM | 1.028 ± 0.0071
VA-ES-BJ, 3.333 µM | 1.05 ± 0.016
VA-ES-BJ, 10 µM | 0.998 ± 0.032
